# Data from patent US9216977B2 (The University of North Carolina at Chapel Hill, priority 2009, dated 2015).
# Like-named read-outs stand apart in the source and are kept apart here.
# What was measured:
# [1] = test system: KBvin; assay: in vitro screen against KBvin cell line, GI50; format: cell-based
# [2] = test system: KB; assay: in vitro screen against human tumor cell line KB (nasopharyngeal), GI50; format: cell-based; conditions: for GI50: read-out: GI50 KB
# [3] = test system: A549; assay: in vitro screen against human tumor cell line A549 (lung), GI50; format: cell-based
# [4] = test system: DU145; assay: in vitro screen against human tumor cell line DU-145 (prostate), GI50; format: cell-based
# [5] = test system: HCT-8; assay: in vitro screen against human tumor cell line HCT-8 (colon), GI50; format: cell-based
# [6] = Example 2, Table 2, 12-aza-antofines
# [7] = Example 2, Table 2, 12-aza-antofines, read-out: GI50 A549
# [8] = Example 2, Table 2, 12-aza-antofines, read-out: GI50 DU145
# [9] = Homo sapiens, KBVIN, Example 3, Table 1
# [10] = Homo sapiens, KB, Example 3, Table 1
# [11] = Homo sapiens, A549, Example 3, Table 1, read-out: GI50 A549
# [12] = Homo sapiens, DU-145, Example 3, Table 1, read-out: GI50 DU145
# [13] = Homo sapiens, KB, Example 2, Table 2, 12-aza-antofines
# [14] = Homo sapiens, HCT-8, Example 2, Table 2, 12-aza-antofines, read-out: GI50 HCT-8
# [15] = Homo sapiens, A549, Example 2, Table 2, 12-aza-antofines, read-out: GI50 A549
# [16] = Homo sapiens, DU-145, Example 2, Table 2, 12-aza-antofines, read-out: GI50 DU145
# [17] = Homo sapiens, HCT-8, read-out: GI50 HCT-8
# [18] = Homo sapiens, A549, read-out: GI50 A549
# [19] = Homo sapiens, DU-145, read-out: GI50 DU145
# [20] = Homo sapiens, KB, Example 2, Table 3, 13-aza-cryptopleurines
# [21] = Homo sapiens, HCT-8, Example 2, Table 3, 13-aza-cryptopleurines, read-out: GI50 HCT-8
# [22] = Homo sapiens, A549, Example 2, Table 3, 13-aza-cryptopleurines, read-out: GI50 A549
# [23] = Homo sapiens, DU-145, Example 2, Table 3, 13-aza-cryptopleurines, read-out: GI50 DU145
compound,measurement,setting,value
COc1ccc2c3c(c4cc(OC)c(OC)cc4c2c1)C[C@H]1CN(CC(C)C)CN1C3,melting point,,93 to 95 °C
"COc1ccc2c3c(c4cc(OC)c(OC)cc4c2c1)CC1CN(C)CN1C3 (stereo in doubt) [Compound 3k, (R)-12-aza-12N-dimethylamino-antofine]",GI50,"[1]; Homo sapiens, Table 2, cells marked (KBvin) in the HCT-8 column",11 µM
same,GI50,[2]; [6],2.38 µM
same,GI50,[3]; [7],4.15 µM
same,GI50,[4]; [8],6.01 µM
COc1ccc2c3c(c4cc(OC)c(OC)cc4c2c1)C[C@H]1CN(Cc2ccccc2)CN1C3 [3a],melting point,,113 to 115 °C
COc1ccc2c3c(c4cc(OC)c(OC)cc4c2c1)C[C@H]1[C@@H](O)CCN1C3 [Compound 3a],GI50,[1]; [9],3.42 µM
same,GI50,[2]; [10],1.83 µM
same,GI50,[3]; [11],2.81 µM
same,GI50,[4]; [12],3.2 µM
COc1ccc2c3c(c4cc(OC)c(OC)cc4c2c1)C[C@H]1[C@H](O)CCN1C3 [Compound 3b],GI50,[1]; [9],0.64 µM
same,GI50,[2]; [10],0.5 µM
same,GI50,[3]; [11],0.27 µM
same,GI50,[4]; [12],0.85 µM
"CCCN1C[C@@H]2Cc3c(c4ccc(OC)cc4c4cc(OC)c(OC)cc34)CN2C1 [Compound 3c, (S)-12-aza-12N-propyl-antofine]",GI50,[2]; [13],6.64 µM
same,GI50,[5]; [14],2.71 µM
same,GI50,[3]; [15],3.94 µM
same,GI50,[4]; [16],7.38 µM
same,melting point,,155 to 157 °C
"COc1ccc2c3c(c4cc(OC)c(OC)cc4c2c1)C[C@H]1CN(CCc2ccccc2)CN1C3 [Compound 3d, (S)-12-aza-12N-phenylethylenyl-antofine]",GI50,"[2]; Homo sapiens, KB",10 µM
same,GI50,[5]; [17],7.47 µM
same,GI50,[3]; [18],6.62 µM
same,GI50,[4]; [19],10.2 µM
same,melting point,,85 to 87 °C
"COc1ccc2c3c(c4cc(OC)c(OC)cc4c2c1)C[C@H]1CN(CCO)CN1C3 [Compound 3e, (S)-12-aza-12N-hydroxylethyl-antofine]",GI50,[2]; [13],7.83 µM
same,GI50,[5]; [14],10.8 µM
same,GI50,[3]; [15],4.41 µM
same,GI50,[4]; [16],6.36 µM
same,melting point,,210 to 212 °C
"COc1ccc2c3c(c4cc(OC)c(OC)cc4c2c1)C[C@H]1CN(C2CC2)CN1C3 [Compound 3g, (S)-12-aza-12N-cyclopropyl-antofine]",GI50,[2]; [13],2.71 µM
same,GI50,[5]; [14],1.85 µM
same,GI50,[3]; [15],1.8 µM
same,GI50,[4]; [16],3.7 µM
same,melting point,,204 to 206 °C
"COc1ccc2c3c(c4cc(OC)c(OC)cc4c2c1)C[C@H]1CN(C)CN1C3 [Compound 3i, (S)-12-aza-12N-dimethylamino-antofine]",GI50,[2]; [6],2.31 µM
same,GI50,"[5]; Example 2, Table 2, 12-aza-antofines, read-out: GI50 HCT-8",2.01 µM
same,GI50,[3]; [7],1.67 µM
same,GI50,[4]; [8],2.26 µM
"COC1=C[C@@H]2Cc3c(c4ccc(OC)cc4c4cc(OC)c(OC)cc34)CN2C1 [Compound 7, (S)-12-methoxy-antofine-12-ene]",GI50,[1],2.64 µM
same,GI50,[2],12.00 µM
same,GI50,[5]; read-out: GI50 HCT-8,3.56 µM
same,GI50,[3]; read-out: GI50 A549,5.97 µM
same,GI50,[4]; read-out: GI50 DU145,10.3 µM
"COc1ccc2c3c(c4cc(OC)c(OC)cc4c2c1)C[C@H]1CNCCN1C3.Cl.Cl [Compound 8a, (S)-13-aza-cryptopleurine dihydrochloride]",GI50,[2],1.79 µM
same,GI50,[5]; read-out: GI50 HCT-8,1.62 µM
same,GI50,[3]; read-out: GI50 A549,1.73 µM
same,GI50,[4]; read-out: GI50 DU145,2.08 µM
"CCN1CCN2Cc3c(c4cc(OC)c(OC)cc4c4cc(OC)ccc34)C[C@H]2C1 [Compound 8b, (S)-13-aza-13N-ethyl-cryptopleurine]",GI50,[2]; [20],8.24 µM
same,GI50,[5]; [21],9.45 µM
same,GI50,[3]; [22],7.13 µM
same,GI50,[4]; [23],10.5 µM
same,melting point,,83 to 85 °C
"COC(=O)N1CCN2Cc3c(c4cc(OC)c(OC)cc4c4cc(OC)ccc34)C[C@H]2C1 [Compound 8c, (S)-13-aza-13N-methoxycarbonyl-cryptopleurine]",GI50,[2]; [20],11.3 µM
same,GI50,[5]; [21],12.1 µM
same,GI50,[3]; [22],10.9 µM
same,GI50,[4]; [23],12.2 µM
same,melting point,,99 to 101 °C
"COc1ccc2c3c(c4cc(OC)c(OC)cc4c2c1)C[C@H]1CN(C(C)=O)CCN1C3 [Compound 8d, (S)-13-aza-13N-acetyl-cryptopleurine]",GI50,"[2]; Homo sapiens, KB",15.5 µM
same,GI50,[5]; [17],13.8 µM
same,GI50,[3]; [18],11.7 µM
same,GI50,[4]; [19],11.9 µM
same,melting point,,123 to 125 °C
"COc1ccc2c3c(c4cc(OC)c(OC)cc4c2c1)C[C@H]1CN(S(C)(=O)=O)CCN1C3 [Compound 8e, (S)-13-aza-13N-methylsulfonyl-cryptopleurine]",GI50,[2],17.52 µM
same,GI50,[5]; read-out: GI50 HCT-8,17.8 µM
same,GI50,[3]; read-out: GI50 A549,14.5 µM
same,GI50,[4]; read-out: GI50 DU145,17 µM
"COc1ccc2c(c1)c1c(c3cc(OC)c(OC)cc32)C[C@H]2CCN(C3CC3)CN2C1 [Compound 11e, (S)-12-aza-12N-cyclopropyl-cryptopleurine]",GI50,[2],11.47 µM
same,GI50,[5]; read-out: GI50 HCT-8,5.73 µM
same,GI50,[3]; read-out: GI50 A549,4.3 µM
same,GI50,[4]; read-out: GI50 DU145,14.3 µM
"COc1ccc2c3c(c4cc(OC)c(OC)cc4c2c1)C[C@H]1CCN(C)CN1C3 [Compound 11f, (S)-12-aza-12N-dimethylamino-cryptopleurine]",GI50,"[2]; Homo sapiens, KB, Example 2, Table 4, 12-aza-cryptopleurines",3.08 µM
same,GI50,"[5]; Homo sapiens, HCT-8, Example 2, Table 4, 12-aza-cryptopleurines, read-out: GI50 HCT-8",2.37 µM
same,GI50,"[3]; Homo sapiens, A549, Example 2, Table 4, 12-aza-cryptopleurines, read-out: GI50 A549",1.78 µM
same,GI50,"[4]; Homo sapiens, DU-145, Example 2, Table 4, 12-aza-cryptopleurines, read-out: GI50 DU145",2.97 µM
"COc1ccc2c3c(c4cc(OC)c(OC)cc4c2c1)C[C@H]1C[C@H](O)[C@@H](O)CN1C3 [Compound 24a, (12S,13S,14aS)-12,13-dihydroxyl-cryptopleurine]",GI50,[1]; [9],2.17 µM
same,GI50,[2]; [10],0.84 µM
same,GI50,[3]; [11],0.55 µM
same,GI50,[4]; [12],0.6 µM
"COc1ccc2c3c(c4cc(OC)c(OC)cc4c2c1)C[C@H]1C[C@@H](O)[C@H](O)CN1C3 [Compound 24b, (12R,13R,14aS)-12,13-dihydroxyl-cryptopleurine]",GI50,[1]; [9],12.6 µM
same,GI50,[2]; [10],17.5 µM
same,GI50,[3]; [11],14.5 µM
same,GI50,[4]; [12],17.1 µM
"CC[C@@]1(O)CCN2Cc3c(c4cc(OC)c(OC)cc4c4cc(OC)ccc34)C[C@H]2C1 [Compound 25, (13R,14aS)-13-ethyl-13-hydroxyl-cryptopleurine]",GI50,[1]; [9],0.87 µM
same,GI50,[2]; [10],0.92 µM
same,GI50,[3]; [11],0.99 µM
same,GI50,[4]; [12],0.77 µM
"COc1ccc2c3c(c4cc(OC)c(OC)cc4c2c1)C[C@H]1C[C@@H](OC)CCN1C3 [Compound 26a, (13S,14aS)-13-methoxy-cryptopleurine]",GI50,[1]; [9],3.69 µM
same,GI50,[2]; [10],5.24 µM
same,GI50,[3]; [11],7.11 µM
same,GI50,[4]; [12],3.57 µM
"COc1ccc2c3c(c4cc(OC)c(OC)cc4c2c1)C[C@H]1C[C@H](OC)CCN1C3 [Compound 26b, (13R,14aS)-13-methoxy-cryptopleurine]",GI50,[1]; [9],0.066 µM
same,GI50,[2]; [10],0.1 µM
same,GI50,[3]; [11],0.025 µM
same,GI50,[4]; [12],0.056 µM
"COc1ccc2c3c(c4cc(OC)c(OC)cc4c2c1)C[C@H]1CCCN1C3 [R-antofine, reference compound]",GI50,[1]; [9],0.025 µM
same,KB GI50,"[2]; Example 1, Table 1",0.036 µM
same,GI50,[2]; [10],0.036 µM
same,GI50,"[3]; Homo sapiens, A549, Example 1, Table 1, read-out: A549 GI50",0.022 µM
"(14R,14aS)-11-oxo-14-hydroxyl-cryptopleurine [Compound 21b]",GI50,[1],0.12 µM
same,GI50,[2],0.30 µM
same,GI50,[3]; read-out: GI50 A549,0.069 µM
same,GI50,[4]; read-out: GI50 DU145,0.2 µM
"(14S,14aS)-11-oxo-14-hydroxyl-cryptopleurine [Compound 21a]",GI50,[1],0.025 µM
same,GI50,[2],0.025 µM
same,GI50,[3]; read-out: GI50 A549,0.01 µM
same,GI50,[4]; read-out: GI50 DU145,0.033 µM
(S)-12-aza-12N-phenyl-cryptopleurine [Compound 11b],GI50,[2],>40 µM
same,GI50,[5]; read-out: GI50 HCT-8,28.4 µM
same,GI50,[3]; read-out: GI50 A549,> 40 µM
same,GI50,[4]; read-out: GI50 DU145,> 40 µM
